Data published in patent US20230399287A1, “NOVEL COMPOUNDS” (Sitryx Therapeutics Limited, priority 2020, published 2023).

Experiments:
IL-6 = experiment: THP-1 AlphaLISA IL-6 cytokine assay; format: cell-based; details: Homo sapiens, THP-1, differentiated THP-1 cells, LPS 24 hr then Nigericin 1 hour
Method: (§1) Measuring Inhibitory Effects on IL-1V and IL-6 Cytokine Output from THP-1s
(§2) The cytokine inhibition profiles of compounds of formula (I) were determined in a differentiated THP-1 cell assay. All assays were performed in RPMI-1640 growth medium (Gibco), supplemented with 10% fetal bovine serum (FBS; Gibco), 1% penicillin-streptomycin and 1% sodium pyruvate unless specified otherwise. The IL-1β and IL-6 cytokine inhibition assays were run in a background of differentiated THP-1 cells as described below. All reagents described were from Sigma-Aldrich unless specified otherwise. Compounds were prepared as 10 mM DMSO stocks.
(§3) THP-1 cells were expanded as a suspension up to 80% confluence in appropriate growth medium. Cells were harvested, suspended, and treated with an appropriate concentration of phorbol 12-myristate 13-acetate (PMA) over a 72 hr period (37° C./5% CO2).
(§4) Following 72 hrs of THP-1 cell incubation, cellular medium was removed and replaced with fresh growth media containing 1% of FBS. Working concentrations of compounds were prepared separately in 10% FBS treated growth medium and pre-incubated with the cells for 30 minutes (37° C./5% CO2). Following the 30 minute compound pre-incubation, THP-1s were treated with an appropriate concentration of LPS and the THP-1s were subsequently incubated for a 24 hr period (37° C./5% CO2). An appropriate final concentration of Nigericin was then dispensed into the THP-1 plates and incubated for 1 hour (37° C./5% CO2) before THP-1 supernatants were harvested and collected in separate polypropylene 96-well holding plates.
(§5) Reagents from each of the IL-1β and IL-6 commercial kits (Perkin Elmer) were prepared and run according to the manufacturer's instructions. Subsequently, fluorescence signal detection in a microplate reader was measured (EnVision® Multilabel Reader, Perkin Elmer).
(§6) Percentage inhibition was calculated per cytokine by normalising the sample data to the high and low controls used within each plate (+/−LPS respectively). Percentage inhibition was then plotted against compound concentration and the 50% inhibitory concentration ([…]) was determined from the resultant concentration-response curve.

IL-1β = experiment: THP-1 AlphaLISA IL-1β cytokine assay; format: cell-based; details: Homo sapiens, THP-1, differentiated THP-1 cells, LPS 24 hr then Nigericin 1 hour
Method: as §1, §2, §3, §4, §5, §6

[1] = Hepatocyte stability assay (human); format: in vitro ADME; details: human, cryopreserved hepatocytes, 10 μM compound, 60 min, read-out: T½
From the text: (§7) Defrosted cryo-preserved hepatocytes (viability>70%) were used to determine the metabolic stability of a compound via calculation of intrinsic clearance (Clint; a measure of the removal of a compound from the liver in the absence of blood flow and cell binding). Clearance data are particularly important for in vitro work as they can be used in combination with in vivo data to predict the half-life and oral bioavailability of a drug.
(§8) The metabolic stability in hepatocytes assay involved a time-dependent reaction using both positive and negative controls. The cells must be pre-incubated at 37° C. then spiked with test compound (and positive control); samples taken at pre-determined time intervals were analysed to monitor the change in concentration of the initial drug compound over 60 minutes. A buffer incubation reaction (with no hepatocytes present) acted as a negative control and two cocktail solutions, containing compounds with known high and low clearance values (verapamil/7-hydroxycoumarin and propranolol/diltiazem), acted as positive controls. • 1. The assay was run with a cell concentration of 0.5×10^6 cells/mL in Leibovitz buffer. • 2. All compounds and controls were run in duplicate. • 3. Compound concentration was 10 μM. • 4. All compounds and controls were incubated with both cells and buffer to show turnover is due to hepatic metabolism. • 5. All wells on the incubation plate had 326.7 μL of either cells or buffer added. • 6. Prior to assay, cell and buffer-only incubation plates were preincubated for 10 mins at 37° C. • 7. The assay was initiated by adding compounds, 3.3 μL of 1 mM in 10% DMSO-90% Buffer; final DMSO concentration is 0.1%. • 8. Samples were taken at regular timepoints (0, 5, 10, 20, 40, 60 min) until 60 mins. • 9. Sample volume was 40 μL and added to 160 μL of crash solvent (acetonitrile with internal standard) and stored on ice. • 10. At the end of the assay, the crash plates were centrifuged at 3500 rpm for 20 mins at 4° C. • 11. 80 μL of clear supernatant was removed and mixed with 80 μL of deionised water before being analysed by LC-MS/MS.
(§9) Raw LC-MS/MS data were exported to, and analysed in, Microsoft Excel for determination of intrinsic clearance. The percentage remaining of a compound was monitored using the peak area of the initial concentration as 100%. Intrinsic clearance and half-life values were calculated using a graph of the natural log of percentage remaining versus the time of reaction in minutes. Half-life (min) and intrinsic clearance (Clint in μL min^−1 10^−6 cells) values were calculated using the gradient of the graph (the elimination rate constant, k) and Equations 1 and 2.

hepatocytes [2] = experiment: Hepatocyte stability assay (human); format: in vitro ADME; details: 10 μM compound, 60 min
From the text: as §7, §8, §9

[3] = Hepatocyte stability assay (mouse); format: in vitro ADME; details: mouse, cryopreserved hepatocytes, 10 μM compound, 60 min, read-out: T½
From the text: as §7, §8, §9

hepatocytes [4] = experiment: Hepatocyte stability assay (mouse); format: in vitro ADME; details: 10 μM compound, 60 min
From the text: as §7, §8, §9

Row | Structure (SMILES) | IC50 (IL-6) | IC50 (IL-1β) | half-life at 10 μM [1] | Clint (hepatocytes [2]) | half-life at 10 μM [3] | Clint (hepatocytes [4])
1 | C=C(CC(=O)O[C@H](c1ccc(C(F)(F)F)cc1)C(F)(F)F)C(=O)O [Example 34, (R)-2-methylene-4-oxo-4-(2,2,2-trifluoro-1-(4-(trifluoromethyl)phenyl)ethoxy)butanoic acid] | > 31.6 µM | 12.2 µM | 0.867 h | 26 μL min^−1 10^−6 cells | 0.433 h | 48 μL min^−1 10^−6 cells
2 | C=C(CC(=O)OC1(c2ccc(C(F)(F)F)cc2)CC2(CCC2)C1)C(=O)O [Example 35, 2-methylene-4-oxo-4-((2-(4-(trifluoromethyl)phenyl)spiro[3.3]heptan-2-yl)oxy)butanoic acid] | > 31.6 µM | 8.8 µM | 1.43 h | 14 μL min^−1 10^−6 cells | 0.5 h | 73 μL min^−1 10^−6 cells
3 | C=C(C(=O)O)C1(C(=O)OC2(c3ccc(C(F)(F)F)cc3)CCC2)CC1 [Example 39, 2-(1-((1-(4-(trifluoromethyl)phenyl)cyclobutoxy)carbonyl)cyclopropyl)acrylic acid] | > 100 µM | 1.5 µM | 1.08 h | 18 μL min^−1 10^−6 cells | 0.8 h | 45 μL min^−1 10^−6 cells
4 | C=C(CC(=O)O[C@]1(c2ccc(C(F)(F)F)cc2)C[C@H](C#N)C1)C(=O)O [Example 41, 4-((cis)-3-cyano-1-(4-(trifluoromethyl)phenyl)cyclobutoxy)-2-methylene-4-oxobutanoic acid] | > 31.6 µM | 2.1 µM | > 7.67 h | <3 μL min^−1 10^−6 cells | 4.87 h | 8 μL min^−1 10^−6 cells
5 | C=C(CC(=O)O[C@]1(c2ccc(C(F)(F)F)cc2)C[C@H](OC)C1)C(=O)O [Example 42, 4-((cis)-3-methoxy-1-(4-(trifluoromethyl)phenyl)cyclobutoxy)-2-methylene-4-oxobutanoic acid] | > 31.6 µM | 17.1 µM | 7.47 h | 4 μL min^−1 10^−6 cells | > 7.67 h | <3 μL min^−1 10^−6 cells
6 | C=C(CC(=O)O[C@]1(c2ccc(C(F)(F)F)cc2)C[C@H](C)C1)C(=O)O [Example 45, (cis)-4-(3-methyl-1-(4-(trifluoromethyl)phenyl)cyclobutoxy)-2-methylene-4-oxobutanoic acid] | > 100 µM | 3.4 µM | > 7.67 h | <3 μL min^−1 10^−6 cells | 2.6 h | 8 μL min^−1 10^−6 cells
7 | C=C(CC(=O)OC1(c2ccc(C(F)(F)F)cn2)COC1)C(=O)O [Example 46, 2-methylene-4-oxo-4-(3-(5-(trifluoromethyl)pyridin-2-yl)oxetan-3-yloxy)butanoic acid] | > 31.6 µM | 4.1 µM | > 7.67 h | <3 μL min^−1 10^−6 cells | > 7.67 h | <3 μL min^−1 10^−6 cells
8 | C=C(CC(=O)OC1(c2ccc(C(F)(F)F)cc2)CCOCC1)C(=O)O [Example 47, 2-methylene-4-oxo-4-((4-(4-(trifluoromethyl)phenyl)tetrahydro-2H-pyran-4-yl)oxy)butanoic acid] | > 100 µM | 6.7 µM | > 7.67 h | <3 μL min^−1 10^−6 cells | > 7.67 h | <3 μL min^−1 10^−6 cells
9 | C=C(CC(=O)OC1(c2ccc(C(F)(F)F)cc2)CS(=O)(=O)C1)C(=O)O [Example 49, 4-((1,1-dioxido-3-(4-(trifluoromethyl)phenyl)thietan-3-yl)oxy)-2-methylene-4-oxobutanoic acid] | > 100 µM | 5 µM | 0.25 h | 91 μL min^−1 10^−6 cells | 0.317 h | 68 μL min^−1 10^−6 cells
10 | C=C(CC(=O)OC1(c2ccc(Br)cn2)CCC1)C(=O)O [Example 50, 4-(1-(5-bromopyridin-2-yl)cyclobutoxy)-2-methylene-4-oxobutanoic acid] | > 100 µM | 1.5 µM | > 7.67 h | <3 μL min^−1 10^−6 cells | 7 h | 4 μL min^−1 10^−6 cells
11 | C=C(CC(=O)OC1(c2ccc(Cl)cn2)CCC1)C(=O)O [Example 51, 4-(1-(5-chloropyridin-2-yl)cyclobutoxy)-2-methylene-4-oxobutanoic acid] | > 31.6 µM | 6.4 µM | > 7.67 h | <3 μL min^−1 10^−6 cells | > 7.67 h | <3 μL min^−1 10^−6 cells
12 | C=C(CC(=O)OC1(c2ncc(C(F)(F)F)cn2)CCC1)C(=O)O [Example 52, 2-methylene-4-oxo-4-(1-(5-(trifluoromethyl)pyrimidin-2-yl)cyclobutoxy)butanoic acid] | > 100 µM | 11.7 µM | > 7.67 h | <3 μL min^−1 10^−6 cells | 5.12 h | 5 μL min^−1 10^−6 cells
13 | C=C(CC(=O)OC(C)(C)c1ccc(C(F)(F)F)cn1)C(=O)O [Example 57, 2-methylene-4-oxo-4-((2-(5-(trifluoromethyl)pyridin-2-yl)propan-2-yl)oxy)butanoic acid] | > 31.6 µM | 6.6 µM | > 7.67 h | <3 μL min^−1 10^−6 cells | 2.52 h | 10 μL min^−1 10^−6 cells
14 | C=C(C(=O)O)C(C)(C)C(=O)OC1(c2ccc(C(F)(F)F)cn2)CCC1 [Example 59, 3,3-dimethyl-2-methylene-4-oxo-4-(1-(5-(trifluoromethyl)pyridin-2-yl)cyclobutoxy)butanoic acid] | > 31.6 µM | 2.9 µM | 2.3 h | 11 μL min^−1 10^−6 cells | > 7.67 h | <3 μL min^−1 10^−6 cells
15 | C=C(CC(=O)OC1(c2ccc(C(F)(F)F)cc2)CC2(CC2)C1)C(=O)O [Example 61, 2-methylene-4-oxo-4-((5-(4-(trifluoromethyl)phenyl)spiro[2.3]hexan-5-yl)oxy)butanoic acid] | > 100 µM | 5.5 µM | 3.58 h | 6 μL min^−1 10^−6 cells | 1.72 h | 21 μL min^−1 10^−6 cells
